The values below come from PubChem BioAssay AID308 (DTP/NCI, 2004).

SMILES strings stand for the structures. “And” between values parts separate entries of the source, which are not always exact repeats. Equal values may be shown once. Inconclusive results and toxic doses are left out.

The test deals with BDF1 mice, L1210 6-MP/6-TG resistant leukemia ip, survival T/C. In words: NCI In Vivo Anticancer Drug Screen. Data for tumor model L1210 Leukemia resistant to 6-MP and 6-Thioguanine; NSC 755, NSC 752 (intraperitoneal) in B6D2F1 (BDF1) mice. The following applies: endpoint: mean survival time, higher = longer survival. On the procedure: The antitumor activity of compounds was measured in mice bearing transplantable tumors. Survival or tumor size were measured and the results are expressed as the measurement made in the treated group (T) divided by the measurement made in the vehicle treated control group (C). The tumor model used in this assay is L1210 Leukemia resistant to 6-MP and 6-Thioguanine; NSC 755, NSC 752 (intraperitoneal) in B6D2F1 (BDF1) mice

Where [1] appears, read: dose: 100.0 mg/kg/injection, schedule: Q01DX Z (ip), vehicle: saline.

Consider `c1ccc(CNc2ncnc3[nH]ncc23)cc1`, for which the T/C is 96 % of control (dose: 1.5 mg/kg/injection, schedule: Q01DX Z (ip), vehicle: carboxymethylcellulose (CMC)); 93 % of control (dose: 3.0 mg/kg/injection, schedule: Q01DX Z (ip), vehicle: carboxymethylcellulose (CMC)); 101 % of control (dose: 6.25 mg/kg/injection, schedule: Q01DX Z (ip), vehicle: carboxymethylcellulose (CMC)); 88 % of control (dose: 12.5 mg/kg/injection, schedule: Q01DX Z (ip), vehicle: carboxymethylcellulose (CMC)); 92 % of control (dose: 25.0 mg/kg/injection, schedule: Q01DX Z (ip), vehicle: carboxymethylcellulose (CMC)); 93 % of control (dose: 50.0 mg/kg/injection, schedule: Q01DX Z (ip), vehicle: carboxymethylcellulose (CMC)).

Turning to `CN(N=O)C(=O)NCCSc1ncnc2nc[nH]c12`, the T/C is, setting by setting: (dose: 88.0 mg/kg/injection, schedule: Q01DX015 (ip), vehicle: other) 104 % of control; (dose: 132.0 mg/kg/injection, schedule: Q01DX015 (ip), vehicle: other) 108 % of control; (dose: 200.0 mg/kg/injection, schedule: Q01DX015 (ip), vehicle: other) 108 % of control; (dose: 300.0 mg/kg/injection, schedule: Q01DX015 (ip), vehicle: other) 102 % of control.

In the case of `CC(C)Cn1cnc2c(Sc3c([N+](=O)[O-])ncn3C)nc(N)nc21`, the T/C was 94 % of control (dose: 1.0 mg/kg/injection, schedule: Q01DX015 (ip), vehicle: other); 92 % of control (dose: 2.0 mg/kg/injection, schedule: Q01DX015 (ip), vehicle: other); 95 % of control (dose: 8.0 mg/kg/injection, schedule: Q01DX015 (ip), vehicle: other); 100 % of control (dose: 12.5 mg/kg/injection, schedule: Q01DX015 (ip), vehicle: other); 97 % of control (dose: 25.0 mg/kg/injection, schedule: Q01DX015 (ip), vehicle: other); 90 % of control (dose: 50.0 mg/kg/injection, schedule: Q01DX015 (ip), vehicle: other).

As to `O=c1[nH]cnc2c1nnn2C1OC(CO)C(O)C1O` (stereo not given), the T/C reads like this: (dose: 50.0 mg/kg/injection, schedule: Q01DX009 (ip), vehicle: saline) 111 % of control; (dose: 76.0 mg/kg/injection, schedule: Q01DX009 (ip), vehicle: saline) 118 % of control; (dose: 114.0 mg/kg/injection, schedule: Q01DX009 (ip), vehicle: saline) 156 % of control and 171 % of control; (dose: 256.0 mg/kg/injection, schedule: Q01DX009 (ip), vehicle: saline) 112 % of control.

Consider `Cc1c(O)ccc(=O)n1O`, for which the T/C reads like this: (dose: 73.0 mg/kg/injection, schedule: Q01DX Z (ip), vehicle: other) 108 % of control; (dose: 165.0 mg/kg/injection, schedule: Q01DX Z (ip), vehicle: other) 103 % of control.

For the molecule `O=c1[nH]cnc2n[nH]nc12`, the T/C reads like this: (dose: 278.0 mg/kg/injection, schedule: Q01DX009 (ip), vehicle: saline with Tween-80) 99 % of control; (dose: 423.0 mg/kg/injection, schedule: Q01DX009 (ip), vehicle: Klucel (hydroxypropylcellulose) (HPC)) 96 % of control; (dose: 423.0 mg/kg/injection, schedule: Q01DX009 (ip), vehicle: saline with Tween-80) 98 % of control; (dose: 632.0 mg/kg/injection, schedule: Q01DX009 (ip), vehicle: Klucel (hydroxypropylcellulose) (HPC)) 100 % of control; (dose: 632.0 mg/kg/injection, schedule: Q01DX009 (ip), vehicle: saline with Tween-80) 98 % of control; (dose: 948.0 mg/kg/injection, schedule: Q01DX009 (ip), vehicle: saline with Tween-80) 94 % of control.

As to `CC1CCOS(=O)O1` (stereo not given), the T/C runs as follows: (dose: 12.5 mg/kg/injection, schedule: Q01DX Z (ip), vehicle: saline) 101 % of control; (dose: 25.0 mg/kg/injection, schedule: Q01DX Z (ip), vehicle: saline) 106 % of control; (dose: 37.5 mg/kg/injection, schedule: Q01DX Z (ip), vehicle: saline) 97 % of control; (dose: 75.0 mg/kg/injection, schedule: Q01DX Z (ip), vehicle: saline) 99 % of control; under setting [1], 91 % of control.

In the case of `Nc1nc(SCc2ccccc2)c2ncn(C3OC(CO)CC3O)c2n1` (stereo not given), the T/C (dose: 18.75 mg/kg/injection, schedule: Q01DX009 (ip), vehicle: other) was 100 % of control; the T/C (dose: 37.5 mg/kg/injection, schedule: Q01DX009 (ip), vehicle: other) was 97 % of control; the T/C (dose: 75.0 mg/kg/injection, schedule: Q01DX009 (ip), vehicle: other) was 99 % of control; the T/C (dose: 150.0 mg/kg/injection, schedule: Q01DX009 (ip), vehicle: other) is 91 % of control.

As to `C[N+](C)(C)c1ncnc2nc[nH]c12`, the T/C reads like this: (dose: 11.25 mg/kg/injection, schedule: Q01DX Z (ip), vehicle: saline) 101 % of control; (dose: 22.5 mg/kg/injection, schedule: Q01DX Z (ip), vehicle: saline) 100 % of control; (dose: 45.0 mg/kg/injection, schedule: Q01DX Z (ip), vehicle: saline) 102 % of control; (dose: 50.0 mg/kg/injection, schedule: Q01DX Z (ip), vehicle: saline) 105 % of control; (dose: 90.0 mg/kg/injection, schedule: Q01DX Z (ip), vehicle: saline) 94 % of control; under setting [1], 99 % of control.

Consider `COC12C(COC(N)=O)C3=C(C(=O)C(C)=C(N)C3=O)N1CC1C2N1C` (stereo not given), for which the T/C (dose: 1.3 mg/kg/injection, schedule: Q01DX015 (ip), vehicle: carboxymethylcellulose (CMC)) is 166 % of control; the T/C (dose: 1.9 mg/kg/injection, schedule: Q01DX015 (ip), vehicle: carboxymethylcellulose (CMC)) is 120 % of control; the T/C (dose: 2.0 mg/kg/injection, schedule: Q01DX015 (ip), vehicle: carboxymethylcellulose (CMC)) is 254 % of control; the T/C (dose: 2.9 mg/kg/injection, schedule: Q01DX015 (ip), vehicle: carboxymethylcellulose (CMC)) was 181 % of control; the T/C (dose: 3.0 mg/kg/injection, schedule: Q01DX015 (ip), vehicle: carboxymethylcellulose (CMC)) is 229 % of control; the T/C (dose: 4.4 mg/kg/injection, schedule: Q01DX015 (ip), vehicle: carboxymethylcellulose (CMC)) was 123 % of control. The T/C (dose: 4.5 mg/kg/injection, schedule: Q01DX015 (ip), vehicle: carboxymethylcellulose (CMC)) was 189 % of control and the T/C (dose: 6.75 mg/kg/injection, schedule: Q01DX015 (ip), vehicle: carboxymethylcellulose (CMC)) is 166 % of control.

Consider `N[C@@H](Cc1ccc(N(CCCl)CCCl)cc1)C(=O)O`, for which the T/C (dose: 4.0 mg/kg/injection, schedule: Q01DX Z (ip), vehicle: carboxymethylcellulose (CMC)) was 107 % of control; the T/C (dose: 6.0 mg/kg/injection, schedule: Q01DX Z (ip), vehicle: carboxymethylcellulose (CMC)) is 122 % of control; the T/C (dose: 8.0 mg/kg/injection, schedule: Q01DX Z (ip), vehicle: carboxymethylcellulose (CMC)) was 119 % of control; the T/C (dose: 12.0 mg/kg/injection, schedule: Q01DX Z (ip), vehicle: carboxymethylcellulose (CMC)) was 122 % of control.
